In patent US6096930A, “Herbicidal cyclohexane-1,3-dione derivatives and their preparation process” (Korea Research Institute of Chemical Technology, priority 1994, dated 2000):
Where two headings read alike, the source gives them in different places.

What was measured:
Type in all cases: in vivo
ABUTH [1] = assay: Herbicidal activity, upland test, pre-emergence
Method: (§1) The sterilized sandy loam soil is filled in test pot having a surface area of 348 cm^2 for upland test conditions or 115 cm^2 for paddy test species were planted in furrows.
(§2) For the pre-emergent tests, were sprayed on the soil one day after planting test compound in a mixture of acetone and 7 ml of the water containing up to 0.1% Tween 20.
(§3) The concentration of the test compound in solution was varied to give a range of application rates, generally 4.0 kg/ha and submultiples thereof. The pots were placed in a greenhouse and watered regularly at the soil surface for 21 days and herbicidal effects were visually rated by a percent control.
(§4) The herbicidal activity data were taken visually by percent control, wherein 0 signifies no herbicidal effect and 100 signifies complete kill.

ECHOR [2] = assay: Herbicidal activity, upland test, pre-emergence
Method: as §1, §2, §3, §4

GLXMX [3] = assay: Herbicidal activity, upland test, pre-emergence
Method: as §1, §2, §3, §4

PANDI [4] = assay: Herbicidal activity, upland test, pre-emergence
Method: as §1, §2, §3, §4

ZEAMX [5] = assay: Herbicidal activity, upland test, pre-emergence
Method: as §1, §2, §3, §4

ABUTH [6] = assay: Herbicidal activity, upland test, post-emergence
Text: as §1
(§5) The pots for the post-emergent tests were placed in a greenhouse and watered for 9~14 days, then the foliage of test plants was sprayed with a solution of the test compound in a mixture of acetone and water containing a small amount of Tween 20.
(§6) After spraying the plants were kept for one day, then watered regularly for 14 to 21 days, and herbicidal activity data were recorded.
as §4

AESIN = assay: Herbicidal activity, upland test, post-emergence
Text: as §1, §5, §6, §4

BROJA = assay: Herbicidal activity, upland test, post-emergence
Text: as §1, §5, §6, §4

DIGSA = assay: Herbicidal activity, upland test, post-emergence
Text: as §1, §5, §6, §4

ECHOR [7] = assay: Herbicidal activity, upland test, post-emergence
Text: as §1, §5, §6, §4

GLXMX [8] = assay: Herbicidal activity, upland test, post-emergence
Text: as §1, §5, §6, §4

GOSHI = assay: Herbicidal activity, upland test, post-emergence
Text: as §1, §5, §6, §4

ORYSA [9] = assay: Herbicidal activity, upland test, post-emergence
Text: as §1, §5, §6, §4

PANDI [10] = assay: Herbicidal activity, upland test, post-emergence
Text: as §1, §5, §6, §4

SOLNI = assay: Herbicidal activity, upland test, post-emergence
Text: as §1, §5, §6, §4

SORBI = assay: Herbicidal activity, upland test, post-emergence
Text: as §1, §5, §6, §4

TRZAW = assay: Herbicidal activity, upland test, post-emergence
Text: as §1, §5, §6, §4

ZEAMX [11] = assay: Herbicidal activity, upland test, post-emergence
Text: as §1, §5, §6, §4

ECHOR [12] = assay: Herbicidal activity for paddy test
How it was run: (§7)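 For paddy conditions, species grew in furrows within pots of sterilized sandy loam soil (115 cm^2 surface area), and efficacy was judged by eye as percent control, with 0 meaning no herbicidal effect and 100 meaning total kill.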

MOOVA = assay: Herbicidal activity for paddy test
How it was run: as §7

ORYSA [13] = assay: Herbicidal activity for paddy test; details: for plant injury at 2 g/ha: 0.002 kg/ha; for plant injury at 8 g/ha: 0.008 kg/ha; for plant injury at 31 g/ha: 0.031 kg/ha; for plant injury at 125 g/ha: 0.125 kg/ha; for plant injury at 500 g/ha: 0.500 kg/ha
How it was run: as §7

SAGPY = assay: Herbicidal activity for paddy test
How it was run: as §7

SCPJU = assay: Herbicidal activity for paddy test
How it was run: as §7

[14] = 3 Leaf, read-out: Herbicidal activity, ORYSA (3 Leaf)
[15] = seed, read-out: Herbicidal activity, ORYSA (seed)

## CCC(=NOC)C1=C(O)CC(c2c(C)c(C)c3c(c2C)CC(C)(C)C3)CC1=O (stereo not drawn) [Compound 1]
ABUTH [1]; 0.016 kg/ha
  Herbicidal activity, ABUTH: 0 % inhibition
ABUTH [1]; 0.063 kg/ha
  Herbicidal activity, ABUTH: 0 % inhibition
ABUTH [1]; 1.000 kg/ha
  Herbicidal activity, ABUTH: 0 % inhibition
ABUTH [1]; 1.250 kg/ha
  Herbicidal activity, ABUTH: 0 % inhibition
ECHOR [2]; 0.016 kg/ha
  Herbicidal activity, ECHOR: 0 % inhibition
ECHOR [2]; 0.063 kg/ha
  Herbicidal activity, ECHOR: 30 % inhibition
ECHOR [2]; 1.000 kg/ha
  Herbicidal activity, ECHOR: 100 % inhibition
ECHOR [2]; 1.250 kg/ha
  Herbicidal activity, ECHOR: 80 % inhibition
GLXMX [3]; 0.016 kg/ha
  Herbicidal activity, GLXMX: 0 % inhibition
GLXMX [3]; 0.063 kg/ha
  Herbicidal activity, GLXMX: 0 % inhibition
GLXMX [3]; 1.000 kg/ha
  Herbicidal activity, GLXMX: 0 % inhibition
GLXMX [3]; 1.250 kg/ha
  Herbicidal activity, GLXMX: 0 % inhibition
PANDI [4]; 0.016 kg/ha
  Herbicidal activity, PANDI: 0 % inhibition
PANDI [4]; 0.063 kg/ha
  Herbicidal activity, PANDI: 100 % inhibition
PANDI [4]; 1.000 kg/ha
  Herbicidal activity, PANDI: 100 % inhibition
PANDI [4]; 1.250 kg/ha
  Herbicidal activity, PANDI: 100 % inhibition
ZEAMX [5]; 0.016 kg/ha
  Herbicidal activity, ZEAMX: 0 % inhibition
ZEAMX [5]; 0.063 kg/ha
  Herbicidal activity, ZEAMX: 0 % inhibition
ZEAMX [5]; 1.000 kg/ha
  Herbicidal activity, ZEAMX: 60 % inhibition
ZEAMX [5]; 1.250 kg/ha
  Herbicidal activity, ZEAMX: 10 % inhibition
ABUTH [6]; 0.016 kg/ha
  Herbicidal activity, ABUTH: 0 % inhibition
ABUTH [6]; 0.063 kg/ha
  Herbicidal activity, ABUTH: 0 % inhibition
ABUTH [6]; 1.000 kg/ha
  Herbicidal activity, ABUTH: 0 % inhibition
ABUTH [6]; 1.250 kg/ha
  Herbicidal activity, ABUTH: 0 % inhibition
AESIN; 0.016 kg/ha
  Herbicidal activity, AESIN: 0 % inhibition
AESIN; 0.063 kg/ha
  Herbicidal activity, AESIN: 0 % inhibition
AESIN; 1.000 kg/ha
  Herbicidal activity, AESIN: 0 % inhibition
AESIN; 1.250 kg/ha
  Herbicidal activity, AESIN: 0 % inhibition
BROJA; 0.016 kg/ha
  Herbicidal activity, BROJA: 0 % inhibition
BROJA; 0.063 kg/ha
  Herbicidal activity, BROJA: 40 % inhibition
BROJA; 1.000 kg/ha
  Herbicidal activity, BROJA: 100 % inhibition
BROJA; 1.250 kg/ha
  Herbicidal activity, BROJA: 70 % inhibition
DIGSA; 0.016 kg/ha
  Herbicidal activity, DIGSA: 70 % inhibition
DIGSA; 0.063 kg/ha
  Herbicidal activity, DIGSA: 100 % inhibition
DIGSA; 1.000 kg/ha
  Herbicidal activity, DIGSA: 100 % inhibition
DIGSA; 1.250 kg/ha
  Herbicidal activity, DIGSA: 100 % inhibition
ECHOR [7]; 0.016 kg/ha
  Herbicidal activity, ECHOR: 60 % inhibition
ECHOR [7]; 0.063 kg/ha
  Herbicidal activity, ECHOR: 100 % inhibition
ECHOR [7]; 1.000 kg/ha
  Herbicidal activity, ECHOR: 100 % inhibition
ECHOR [7]; 1.250 kg/ha
  Herbicidal activity, ECHOR: 100 % inhibition
GLXMX [8]; 0.016 kg/ha
  Herbicidal activity, GLXMX: 0 % inhibition
GLXMX [8]; 0.063 kg/ha
  Herbicidal activity, GLXMX: 0 % inhibition
GLXMX [8]; 1.000 kg/ha
  Herbicidal activity, GLXMX: 60 % inhibition
GLXMX [8]; 1.250 kg/ha
  Herbicidal activity, GLXMX: 20 % inhibition
GOSHI; 0.016 kg/ha
  Herbicidal activity, GOSHI: 0 % inhibition
GOSHI; 0.063 kg/ha
  Herbicidal activity, GOSHI: 30 % inhibition
GOSHI; 1.000 kg/ha
  Herbicidal activity, GOSHI: 50 % inhibition
GOSHI; 1.250 kg/ha
  Herbicidal activity, GOSHI: 40 % inhibition
ORYSA [9]; 0.016 kg/ha
  Herbicidal activity, ORYSA: 0 % inhibition
ORYSA [9]; 0.063 kg/ha
  Herbicidal activity, ORYSA: 50 % inhibition
ORYSA [9]; 1.000 kg/ha
  Herbicidal activity, ORYSA: 100 % inhibition
ORYSA [9]; 1.250 kg/ha
  Herbicidal activity, ORYSA: 100 % inhibition
PANDI [10]; 0.016 kg/ha
  Herbicidal activity, PANDI: 40 % inhibition
PANDI [10]; 0.063 kg/ha
  Herbicidal activity, PANDI: 100 % inhibition
PANDI [10]; 1.000 kg/ha
  Herbicidal activity, PANDI: 100 % inhibition
PANDI [10]; 1.250 kg/ha
  Herbicidal activity, PANDI: 100 % inhibition
SOLNI; 0.016 kg/ha
  Herbicidal activity, SOLNI: 0 % inhibition
SOLNI; 0.063 kg/ha
  Herbicidal activity, SOLNI: 0 % inhibition
SOLNI; 1.000 kg/ha
  Herbicidal activity, SOLNI: 0 % inhibition
SOLNI; 1.250 kg/ha
  Herbicidal activity, SOLNI: 0 % inhibition
SORBI; 0.016 kg/ha
  Herbicidal activity, SORBI: 0 % inhibition
SORBI; 0.063 kg/ha
  Herbicidal activity, SORBI: 20 % inhibition
SORBI; 1.000 kg/ha
  Herbicidal activity, SORBI: 100 % inhibition
SORBI; 1.250 kg/ha
  Herbicidal activity, SORBI: 60 % inhibition
TRZAW; 0.016 kg/ha
  Herbicidal activity, TRZAW: 30 % inhibition
TRZAW; 0.063 kg/ha
  Herbicidal activity, TRZAW: 40 % inhibition
TRZAW; 1.000 kg/ha
  Herbicidal activity, TRZAW: 100 % inhibition
TRZAW; 1.250 kg/ha
  Herbicidal activity, TRZAW: 60 % inhibition
ZEAMX [11]; 0.016 kg/ha
  Herbicidal activity, ZEAMX: 0 % inhibition
ZEAMX [11]; 0.063 kg/ha
  Herbicidal activity, ZEAMX: 30 % inhibition
ZEAMX [11]; 1.000 kg/ha
  Herbicidal activity, ZEAMX: 100 % inhibition
ZEAMX [11]; 1.250 kg/ha
  Herbicidal activity, ZEAMX: 100 % inhibition
ECHOR [12]; 0.002 kg/ha
  pest or weed control at 2 g/ha: 95%
ECHOR [12]; 0.008 kg/ha
  pest or weed control at 8 g/ha: 95%
ECHOR [12]; 0.031 kg/ha
  pest or weed control at 31 g/ha: 100%
ECHOR [12]; 0.125 kg/ha
  pest or weed control at 125 g/ha: 100%
ECHOR [12]; 0.500 kg/ha
  pest or weed control at 500 g/ha: 100%
MOOVA; 0.002 kg/ha
  pest or weed control at 2 g/ha: 0%
MOOVA; 0.008 kg/ha
  pest or weed control at 8 g/ha: 0%
MOOVA; 0.031 kg/ha
  pest or weed control at 31 g/ha: 0%
MOOVA; 0.125 kg/ha
  pest or weed control at 125 g/ha: 0%
MOOVA; 0.500 kg/ha
  pest or weed control at 500 g/ha: 0%
ORYSA [13]; [14]
  plant injury at 2 g/ha: 0%
  plant injury at 8 g/ha: 0%
  plant injury at 31 g/ha: 0%
  plant injury at 125 g/ha: 90%
  plant injury at 500 g/ha: 100%
ORYSA [13]; [15]
  plant injury at 2 g/ha: 0%
  plant injury at 8 g/ha: 70%
  plant injury at 31 g/ha: 100%
  plant injury at 125 g/ha: 100%
  plant injury at 500 g/ha: 100%
SAGPY; 0.002 kg/ha
  pest or weed control at 2 g/ha: 0%
SAGPY; 0.008 kg/ha
  pest or weed control at 8 g/ha: 0%
SAGPY; 0.031 kg/ha
  pest or weed control at 31 g/ha: 0%
SAGPY; 0.125 kg/ha
  pest or weed control at 125 g/ha: 0%
SAGPY; 0.500 kg/ha
  pest or weed control at 500 g/ha: 0%
SCPJU; 0.002 kg/ha
  pest or weed control at 2 g/ha: 0%
SCPJU; 0.008 kg/ha
  pest or weed control at 8 g/ha: 0%
SCPJU; 0.031 kg/ha
  pest or weed control at 31 g/ha: 0%
SCPJU; 0.125 kg/ha
  pest or weed control at 125 g/ha: 0%
SCPJU; 0.500 kg/ha
  pest or weed control at 500 g/ha: 0%
